The text below walks through data of patent US20240417342A1, “METHOD FOR PRODUCING GRANULAR COMPOSITION CONTAINING GLUTATHIONE” (KANEKA CORPORATION, priority 2022, published 2024).

Each structure is given as a SMILES string. Like-named read-outs stand apart in the source and are kept apart here.

This data set can be described thus: Solubility in water at 20° C. It is filed as physicochemical. On the procedure:
Specifically, the percentage can be expressed as the number of grams of the nitrogen-containing fertilizer component that is soluble in 100 ml of water at 20° C.

For the compound `N[C@@H](Cc1c[nH]cn1)C(=O)O` [L-histidine], the “solubility in water at 20° C.” value stood at 4.2 g/100 mL. The “solubility in water at 20° C.” value (% = g per 100 ml water) is given as 4.2%.
On the same counts, the results for `CC[C@H](C)[C@H](N)C(=O)O` [L-isoleucine] are 4.0 g/100 mL and 4.0%.
On the same counts, the results for `NC(=O)NC1NC(=O)NC1=O` (stereo not drawn) [allantoin] are 0.5 g/100 mL and 0.5%.
